Data taken from ChEMBL document CHEMBL3112480, “γ-Alkylidene-γ-lactones and isobutylpyrrol-2(5H)-ones analogues to rubrolides as inhibitors of biofilm formation by gram-positive and gram-negative bacteria” (Bioorg Med Chem Lett, 2014).
Converted amounts (≈) assume the structure as drawn.

Key:
[1] = test system: Pseudomonas aeruginosa; test: Antibacterial activity against Pseudomonas aeruginosa ATCC 27853 assessed as inhibition of biofilm formation after 20 hrs by crystal-violet staining method; type: functional, organism-based
[2] = test system: Staphylococcus epidermidis; test: Antibacterial activity against Staphylococcus epidermidis ATCC 35547 assessed as effect on planktonic growth at 0.68 ug/ml after 20 hrs relative to control; type: functional
[3] = test system: Staphylococcus aureus; test: Antibacterial activity against Staphylococcus aureus ATCC 25923 assessed as effect on planktonic growth at 1.37 ug/ml after 20 hrs relative to control; type: functional
[4] = test system: Staphylococcus aureus; test: Antibacterial activity against Staphylococcus aureus ATCC 25923 assessed as effect on planktonic growth at 10.9 ug/ml after 20 hrs relative to control; type: functional
[5] = test system: Pseudomonas aeruginosa; test: Antibacterial activity against Pseudomonas aeruginosa ATCC 27853 assessed as effect on planktonic growth at 0.17 ug/ml after 20 hrs relative to control; type: functional
[6] = test system: Staphylococcus epidermidis; test: Antibacterial activity against Staphylococcus epidermidis ATCC 35547 assessed as effect on planktonic growth at 87.5 ug/ml after 20 hrs relative to control; type: functional
[7] = test system: Staphylococcus aureus; test: Antibacterial activity against Staphylococcus aureus ATCC 25923 assessed as effect on planktonic growth at 0.34 ug/ml after 20 hrs relative to control; type: functional
[8] = test system: Streptococcus mutans; test: Antibacterial activity against Streptococcus mutans ATCC 25175 assessed as effect on planktonic growth at 43.8 ug/ml after 20 hrs relative to control; type: functional
[9] = test system: Pseudomonas aeruginosa; test: Antibacterial activity against Pseudomonas aeruginosa ATCC 27853 assessed as effect on planktonic growth at 43.8 ug/ml after 20 hrs relative to control; type: functional
[10] = test system: Pseudomonas aeruginosa; test: Antibacterial activity against Pseudomonas aeruginosa ATCC 27853 assessed as effect on planktonic growth at 87.5 ug/ml after 20 hrs relative to control; type: functional
[11] = test system: Pseudomonas aeruginosa; test: Antibacterial activity against Pseudomonas aeruginosa ATCC 27853 assessed as effect on planktonic growth at 2.73 ug/ml after 20 hrs relative to control; type: functional
[12] = test system: Streptococcus mutans; test: Antibacterial activity against Streptococcus mutans ATCC 25175 assessed as effect on planktonic growth at 5.5 ug/ml after 20 hrs relative to control; type: functional
[13] = test system: Pseudomonas aeruginosa; test: Antibacterial activity against Pseudomonas aeruginosa ATCC 27853 assessed as effect on planktonic growth at 0.34 ug/ml after 20 hrs relative to control; type: functional
[14] = test system: Staphylococcus aureus; test: Antibacterial activity against Staphylococcus aureus ATCC 25923 assessed as effect on planktonic growth at 2.73 ug/ml after 20 hrs relative to control; type: functional
[15] = test system: Staphylococcus aureus; test: Antibacterial activity against Staphylococcus aureus ATCC 25923 assessed as effect on planktonic growth at 5.5 ug/ml after 20 hrs relative to control; type: functional
[16] = test system: Staphylococcus epidermidis; test: Antibacterial activity against Staphylococcus epidermidis ATCC 35547 assessed as effect on planktonic growth at 1.37 ug/ml after 20 hrs relative to control; type: functional
[17] = test system: Streptococcus mutans; test: Antibacterial activity against Streptococcus mutans ATCC 25175 assessed as effect on planktonic growth at 21.9 ug/ml after 20 hrs relative to control; type: functional
[18] = test system: Staphylococcus epidermidis; test: Antibacterial activity against Staphylococcus epidermidis ATCC 35547 assessed as effect on planktonic growth at 10.9 ug/ml after 20 hrs relative to control; type: functional
[19] = test system: Staphylococcus epidermidis; test: Antibacterial activity against Staphylococcus epidermidis ATCC 35547 assessed as effect on planktonic growth at 2.73 ug/ml after 20 hrs relative to control; type: functional
[20] = test system: Streptococcus mutans; test: Antibacterial activity against Streptococcus mutans ATCC 25175 assessed as effect on planktonic growth at 0.34 ug/ml after 20 hrs relative to control; type: functional
[21] = test system: Staphylococcus epidermidis; test: Antibacterial activity against Staphylococcus epidermidis ATCC 35547 assessed as inhibition of biofilm formation after 20 hrs by crystal-violet staining method; type: functional, organism-based; conditions: for IC50: ATCC 35547, 20 h
[22] = test system: Streptococcus mutans; test: Antibacterial activity against Streptococcus mutans ATCC 25175 assessed as effect on planktonic growth at 1.37 ug/ml after 20 hrs relative to control; type: functional
[23] = test system: Streptococcus mutans; test: Antibacterial activity against Streptococcus mutans ATCC 25175 assessed as effect on planktonic growth at 0.17 ug/ml after 20 hrs relative to control; type: functional
[24] = test system: Staphylococcus aureus; test: Antibacterial activity against Staphylococcus aureus ATCC 25923 assessed as effect on planktonic growth at 87.5 ug/ml after 20 hrs relative to control; type: functional
[25] = test system: Staphylococcus epidermidis; test: Antibacterial activity against Staphylococcus epidermidis ATCC 35547 assessed as effect on planktonic growth at 21.9 ug/ml after 20 hrs relative to control; type: functional
[26] = test system: Staphylococcus epidermidis; test: Antibacterial activity against Staphylococcus epidermidis ATCC 35547 assessed as effect on planktonic growth at 5.5 ug/ml after 20 hrs relative to control; type: functional
[27] = test system: Staphylococcus aureus; test: Antibacterial activity against Staphylococcus aureus ATCC 25923 assessed as effect on planktonic growth at 43.8 ug/ml after 20 hrs relative to control; type: functional
[28] = test system: Pseudomonas aeruginosa; test: Antibacterial activity against Pseudomonas aeruginosa ATCC 27853 assessed as effect on planktonic growth at 0.68 ug/ml after 20 hrs relative to control; type: functional
[29] = test system: Streptococcus mutans; test: Antibacterial activity against Streptococcus mutans ATCC 25175 assessed as effect on planktonic growth at 10.9 ug/ml after 20 hrs relative to control; type: functional
[30] = test system: Staphylococcus epidermidis; test: Antibacterial activity against Staphylococcus epidermidis ATCC 35547 assessed as effect on planktonic growth at 43.8 ug/ml after 20 hrs relative to control; type: functional
[31] = test system: Staphylococcus aureus; test: Antibacterial activity against Staphylococcus aureus ATCC 25923 assessed as effect on planktonic growth at 0.17 ug/ml after 20 hrs relative to control; type: functional
[32] = test system: Staphylococcus epidermidis; test: Antibacterial activity against Staphylococcus epidermidis ATCC 35547 assessed as effect on planktonic growth at 0.17 ug/ml after 20 hrs relative to control; type: functional
[33] = test system: Pseudomonas aeruginosa; test: Antibacterial activity against Pseudomonas aeruginosa ATCC 27853 assessed as effect on planktonic growth at 1.37 ug/ml after 20 hrs relative to control; type: functional
[34] = test system: Pseudomonas aeruginosa; test: Antibacterial activity against Pseudomonas aeruginosa ATCC 27853 assessed as effect on planktonic growth at 5.5 ug/ml after 20 hrs relative to control; type: functional
[35] = test system: Staphylococcus epidermidis; test: Antibacterial activity against Staphylococcus epidermidis ATCC 35547 assessed as effect on planktonic growth at 0.34 ug/ml after 20 hrs relative to control; type: functional
[36] = test system: Staphylococcus aureus; test: Antibacterial activity against Staphylococcus aureus ATCC 25923 assessed as effect on planktonic growth at 0.68 ug/ml after 20 hrs relative to control; type: functional
[37] = test system: Streptococcus mutans; test: Antibacterial activity against Streptococcus mutans ATCC 25175 assessed as effect on planktonic growth at 2.73 ug/ml after 20 hrs relative to control; type: functional
[38] = test system: Staphylococcus aureus; test: Antibacterial activity against Staphylococcus aureus ATCC 25923 assessed as effect on planktonic growth at 21.9 ug/ml after 20 hrs relative to control; type: functional
[39] = test system: Streptococcus mutans; test: Antibacterial activity against Streptococcus mutans ATCC 25175 assessed as effect on planktonic growth at 0.68 ug/ml after 20 hrs relative to control; type: functional
[40] = test system: Pseudomonas aeruginosa; test: Antibacterial activity against Pseudomonas aeruginosa ATCC 27853 assessed as effect on planktonic growth at 10.9 ug/ml after 20 hrs relative to control; type: functional
[41] = test system: Pseudomonas aeruginosa; test: Antibacterial activity against Pseudomonas aeruginosa ATCC 27853 assessed as effect on planktonic growth at 21.9 ug/ml after 20 hrs relative to control; type: functional
[42] = test system: Streptococcus mutans; test: Antibacterial activity against Streptococcus mutans ATCC 25175 assessed as effect on planktonic growth at 87.5 ug/ml after 20 hrs relative to control; type: functional

Which results are given for `COc1ccc(Br)cc1C1=C(Br)C(=O)N(CC(C)C)C1(O)Cc1ccc(Br)cc1` (stereo unspecified)?
inhibition [1]: Dose-dependent effect; Activity [2]: -5.4%; Activity [3]: -14.8%; Activity [4]: -11.3%; Activity [5]: -4%; Activity [6]: 29.8%; Activity [7]: -3.4%; Activity [8]: -17.9%; Activity [9]: 63.9%; Activity [10]: 39.4%; Activity [11]: 0.8%; Activity [12]: -3%; Activity [13]: -5.7%; Activity [14]: -17.9%; Activity [15]: -9%; Activity [16]: 8%; Activity [17]: -13.7%; Activity [18]: 11.2%; Activity [19]: 4.8%; Activity [20]: -7%; inhibition [21]: Dose-dependent effect; IC50 [21]: 13.3 µg/mL (≈ 22.6 µM); Activity [22]: 4%; Activity [23]: -13.2%; Activity [24]: 7.4%; Activity [25]: 55.8%; Activity [26]: -2.4%; Activity [27]: -13.7%; Activity [28]: -7%; Activity [29]: -8%; Activity [30]: 43.6%; Activity [31]: 1.1%; Activity [32]: 2.1%; Activity [33]: -4.5%; Activity [34]: 58.3%; Activity [35]: 4.3%; Activity [36]: -10.8%; Activity [37]: -6%; Activity [38]: -15.6%; Activity [39]: -8%; Activity [40]: 64.1%; Activity [41]: 58.3%; Activity [42]: 0.2%

Which results are given for `COc1ccccc1C1=C(Br)C(=O)N(CC(C)C)/C1=C\c1ccc(C(F)(F)F)cc1`?
inhibition [1]: Dose-dependent effect; Activity [2]: -13.2%; Activity [3]: -30.9%; Activity [4]: -33.8%; Activity [5]: -2.1%; Activity [6]: -6.3%; Activity [7]: -14.7%; Activity [8]: -13.5%; Activity [9]: 44%; Activity [10]: 35.2%; Activity [11]: -9.2%; Activity [12]: -3%; Activity [13]: -1.7%; Activity [14]: -35.6%; Activity [15]: -33.5%; Activity [16]: -17.9%; Activity [17]: -11.6%; Activity [18]: 6.6%; Activity [19]: -21.2%; Activity [20]: 0.6%; inhibition [21]: Dose-dependent effect; IC50 [21]: 23 µg/mL (≈ 47.9 µM); Activity [22]: 10.7%; Activity [23]: 0.3%; Activity [24]: 1.8%; Activity [25]: 38.7%; Activity [26]: -14.8%; Activity [27]: -15.4%; Activity [28]: 0.1%; Activity [29]: -12.9%; Activity [30]: 37.8%; Activity [31]: -5.8%; Activity [32]: -22.1%; Activity [33]: -5.9%; Activity [34]: -1.7%; Activity [35]: -17%; Activity [36]: -18.1%; Activity [37]: 14%; Activity [38]: -29.3%; Activity [39]: 5.5%; Activity [40]: 35.6%; Activity [41]: 53.2%; Activity [42]: 3.6%
